Source: patent US20110045101A1, “FUNGICIDAL SUBSTITUTED AZOLES” (E.I. Du Pont De Nemours and Company, priority 2009, published 2011)
Marks after values point to notes of the source that are not given here.

Columns and labels:
Type in all cases: in vivo
Settings in all cases: 100 = 100% disease control
Septoria tritici = test: Test G: wheat leaf blotch on wheat seedlings, sprayed the day before inoculation, visual disease rating
Procedure, shortened: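 Spray to run-off, 200 ppm (≈500 g/ha; starred = 40 ppm), acetone/water 50/50 + 250 ppm Trem® 014. Spore inoculation +1 d. 24° C saturated 48 h → 20° C 19 d. Visual rating.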

[1] = tested on: Puccinia recondita f. sp. tritici; test: Test I: wheat leaf rust on wheat seedlings, sprayed the day before inoculation, visual disease rating
Procedure, shortened: (§1)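 Test rate was 200 ppm, sprayed to run-off and equal to 500 g/ha, or 40 ppm where marked. The compound was first taken up in acetone at 3% of final volume and suspended in acetone/purified water (50/50) containing 250 ppm Trem® 014.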

Septoria nodorum = test: Test F: wheat glume blotch on wheat seedlings, sprayed the day before inoculation, visual disease rating
Procedure, shortened: as §1

Alternaria solani = test: Test D: tomato early blight, sprayed the day before inoculation, visual disease rating
Procedure, shortened: as §1

[2] = tested on: Puccinia recondita f. sp. tritici; test: Test H: wheat leaf rust, test suspension sprayed after inoculation of wheat seedlings, visual disease rating
Procedure, shortened: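 Wheat seedlings inoculated with P. recondita spores, held 24 h saturated at 20 °C, then 2 days in growth chamber at 20 °C; compound suspension (acetone/water with Trem 014) sprayed to run-off afterwards. Rated visually; 200 ppm (≈500 g/ha) unless marked *, which denotes 40 ppm.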

[3] = tested on: Erysiphe graminis f. sp. tritici; test: Test J: wheat powdery mildew on wheat seedlings, sprayed the day before inoculation, visual disease rating
Procedure, shortened: as §1

Botrytis cinerea = test: Test C: tomato Botrytis on tomato seedlings, sprayed the day before inoculation, visual disease rating
Procedure, shortened: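 Each compound is first taken up in acetone at 3% of the final volume and then brought to the desired ppm in a 50:50 acetone–water mix with 250 ppm surfactant (polyhydric alcohol esters). Tomato seedlings receive the suspension to run-off, normally at 200 ppm, occasionally 40 ppm.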

[4] = 200 ppm, 0 = no control relative to controls
[5] = 40 ppm (marked *), 0 = no control

SMILES	Test G disease control rating (Septoria tritici; [4])	Test I disease control rating [1, 4]	Test F disease control rating (Septoria nodorum; [4])	Test D disease control rating (Alternaria solani; [4])	Test H disease control rating [2, 4]	Test J disease control rating [3, 4]	Test C disease control rating (Botrytis cinerea; [4])	further results
COc1ccc(F)c(-c2c(Cl)ncn2-c2ccc(Br)cc2)c1F [compound 528]	99%	96%	99%	100%	15%	100%	100%	
CN(C)c1ncn(-c2cccc(F)c2)c1-c1c(F)cc(F)cc1F [compound 363]	53%	0%	0%	0%	9%	0%	99%	
COc1ccc(Cl)c(-c2c(Cl)nc(Br)n2-c2ccc(Cl)cc2)c1F [compound 512]	98%	79%	0%	98%	40%	99%	97%	
COc1ccc(F)c(-c2c(Cl)nc(C)n2-c2ccc(Br)cc2)c1F [compound 582]	97%	99%	99%	100%	15%	100%	100%	
Cc1ccc(-n2c(Cl)nc(C)c2-c2c(F)ccc(F)c2Cl)cc1 [compound 495]								Test G disease control rating (Septoria tritici; 40 ppm (marked *)): 31* %; Test I disease control rating ([1]; 40 ppm (marked *)): 99* %; Test F disease control rating (Septoria nodorum; 40 ppm (marked *)): 0* %; Test D disease control rating (Alternaria solani; 40 ppm (marked *)): 99* %; Test H disease control rating ([2]; 40 ppm (marked *)): 0* %; Test J disease control rating ([3]; 40 ppm (marked *)): 100* %; Test C disease control rating (Botrytis cinerea; 40 ppm (marked *)): 97* %
COc1cc(F)c(-c2c(Cl)nc(Br)n2-c2cccc(OC(F)F)c2)c(F)c1 [compound 545]	99%	100%	98%	100%	27%	99%	100%	
CCOc1cc(F)c(-c2c(Cl)ncn2-c2cccc(F)c2)c(F)c1 [compound 703]	99%	98%	100%	100%	39%	97%	100%	
Cc1nc(Cl)c(-c2c(F)cccc2F)n1-c1ccc(Cl)c2ccccc12 [compound 304]								Test G disease control rating (Septoria tritici; [5]): 27* %; Test I disease control rating [1, 5]: 0* %; Test F disease control rating (Septoria nodorum; [5]): 0* %; Test D disease control rating (Alternaria solani; [5]): 0* %; Test H disease control rating [2, 5]: 0* %; Test J disease control rating [3, 5]: 0* %; Test C disease control rating (Botrytis cinerea; [5]): 0* %
COc1ccc(-c2c(Cl)nc(Cl)n2-c2ccc(Cl)cc2Cl)cc1 [compound 698]	99%	83%	0%	0%	0%	56%	99%	
Cc1nc(Br)c(-c2ccc(Cl)cc2)n1-c1ccc(F)cc1Cl [compound 338]	93%	99%	80%	100%	0%	99%	100%	
COc1cc(F)c(-c2c(Cl)nc(CF)n2-c2ccc(F)cc2)c(F)c1 [Compound 331, 4-chloro-5-(2,6-difluoro-4-methoxyphenyl)-2-(fluoromethyl)-1-(4-fluorophenyl)-1H-imidazole]								pest or weed control at 200 ppm (Septoria tritici; Zymoseptoria tritici, 504 h, 200 ppm, 0 = no control relative to controls): 95%; pest or weed control at 200 ppm ([1]; Puccinia recondita, 168 h, 200 ppm, 0 = no control relative to controls): 100%; pest or weed control at 200 ppm (Septoria nodorum; Parastagonospora nodorum, 264 h, 200 ppm, 0 = no control relative to controls): 99%; pest or weed control at 200 ppm (Alternaria solani; Alternaria solani, 168 h, 200 ppm, 0 = no control relative to controls): 100%; pest or weed control at 200 ppm ([2]; Puccinia recondita, 96 h, 200 ppm, 0 = no control relative to controls): 85%; pest or weed control at 200 ppm ([3]; Blumeria graminis, 168 h, 200 ppm, 0 = no control relative to controls): 100%; pest or weed control at 200 ppm (Botrytis cinerea; Botrytis cinerea, 120 h, 200 ppm, 0 = no control relative to controls): 100%
Cc1nc(Cl)c(-c2c(F)cccc2F)n1-c1ccc2c(c1)OC(F)(F)O2 [compound 608]								Test G disease control rating (Septoria tritici; 40 ppm (marked *)): 4* %; Test I disease control rating ([1]; 40 ppm (marked *)): 41* %; Test F disease control rating (Septoria nodorum; 40 ppm (marked *)): 0* %; Test D disease control rating (Alternaria solani; 40 ppm (marked *)): 0* %; Test H disease control rating ([2]; 40 ppm (marked *)): 7* %; Test J disease control rating ([3]; 40 ppm (marked *)): 0* %; Test C disease control rating (Botrytis cinerea; 40 ppm (marked *)): 17* %
COc1ccc(F)c(-c2c(Cl)nc(Br)n2-c2cccc(OC(F)F)c2)c1F [compound 402]	96%	94%	99%	100%	0%	99%	100%	
Cc1nc(Cl)c(-c2ccc(Cl)cc2)n1Cc1cccc(Cl)c1 [compound 295]								Test G disease control rating (Septoria tritici; 200 ppm, 0 = no control): 94%; Test I disease control rating ([1]; 200 ppm, 0 = no control): 80%; Test F disease control rating (Septoria nodorum; 200 ppm, 0 = no control): 0%; Test D disease control rating (Alternaria solani; 200 ppm, 0 = no control): 0%; Test H disease control rating ([2]; 200 ppm, 0 = no control): 0%; Test J disease control rating ([3]; 200 ppm, 0 = no control): 0%; Test C disease control rating (Botrytis cinerea; 200 ppm, 0 = no control): 99%
COc1ccc(F)c(-c2c(Cl)nc(Cl)n2-c2ccc(C)cc2)c1F [compound 310]	96%	100%	99%	100%	61%	100%	99%	
Clc1ccc(-c2c(Cl)nc(Cl)n2Cc2cccc(Cl)c2)cc1 [compound 361]	93%	74%	0%	0%	9%	80%	99%	
COc1ccc(F)c(-c2c(C)nc(Br)n2-c2ccc(Cl)nc2)c1F [compound 735]	100%	100%	99%	100%	9%	100%	100%	
COc1ccc(F)c(-c2c(Cl)nc(Br)n2-c2cccc(C)c2)c1F [compound 316]	93%	99%	95%	99%	6%	100%	99%	
COc1ccc(F)c(-c2c(Cl)nc(C)n2-c2ccc(C)c(F)c2)c1F [compound 590]								Test G disease control rating (Septoria tritici; 40 ppm (marked *)): 96* %; Test I disease control rating ([1]; 40 ppm (marked *)): 100* %; Test F disease control rating (Septoria nodorum; 40 ppm (marked *)): 94* %; Test D disease control rating (Alternaria solani; 40 ppm (marked *)): 100* %; Test H disease control rating ([2]; 40 ppm (marked *)): 7* %; Test J disease control rating ([3]; 40 ppm (marked *)): 100* %; Test C disease control rating (Botrytis cinerea; 40 ppm (marked *)): 100* %
Fc1cc(-n2c(Cl)nc(Br)c2-c2c(F)ccc(F)c2F)ccc1Cl [compound 350]	91%	99%	82%	100%	0%	100%	99%	
